US12318452B2, “Degraders of WEE1 kinase” (DANA-FARBER CANCER INSTITUTE, INC., priority 2018, dated 2025)

target: Wee1 (Homo sapiens, UniProt P30291); assay: Cellular degradation of Wee1 by immunoblot, 6-hour treatment of MOLT4 cells; format: cell-based; design: endogenous in cells; host or cells: MOLT4 (wild type; CRBN-/- as control); details: MOLT4 cells, immunoblot
Protocol: General Protocol: HT-29, MOLT4 wild type (WT) or CRBN^-/- cells were plated in a 6 well plate and treated for 6 hours with the indicated concentrations of the inventive compounds and control. HT-29 cells were cultured in McCoy's Media supplemented with 10% FBS and 1% Penicillin/Streptomycin. MOLT4 WT and CRBN^-/- cells were cultured in Roswell Park Memorial Institute (RPMI) medium supplemented with 10% FBS and 1% Penicillin/Streptomycin. Mycoplasma testing was performed every month and all lines were negative. Immunoblotting: Cells were washed with phosphate-buffered saline (PBS) and then lysed using radioimmunoprecipitation assay (RIPA) buffer supplemented with protease and phosphatase inhibitor cocktail (Roche) on ice for 15 minutes. The lysates were centrifuged at 14,000 rpm for 15 minutes at 4° C. and protein was quantified by bicinchoninic acid (BCA) assay (PierceTM). Primary antibodies used include: Wee1 ([…]) (Cell Signaling Technology®, 13084S), polo-like kinase 1 (PLK1) (Thermo Fisher Scientific, 37-7000), phosphor-cdc2 (Y15) (10A11) (Cell Signaling Technology®, […]), phospho-histone H3 ([…]) (Cell Signaling Technology®, […]), Ikaros ([…]) (Cell Signaling Technology®, 14859S), Aiolos ([…]) (Cell Signaling Technology®, 15103), casein kinase 1 alpha (Abcam®, 108296), β-actin (Cell Signaling Technology®, 8H10D10). FIG. 2A is an immunoblot showing that compound 13 degraded Wee1 after a 6-hour treatment in MOLT4 cells, and induced the downstream changes expected from Wee1 loss-including a decrease in phosphorylated cyclin-dependent kinase 1 (pCDK1) (Y15) and an increase in pH 3. […] Degradation of Wee1 by compound 13 was rescued in MOLT4 CRBN^-/- cells. MOLT4 WT and CRBN^-/- cells were plated in a 6-well plate at 2.25 million cells per well in 3 mL media (RPMI+10% FBS+1% Penn/Strep). After treatment with the indicated concentrations of candidate compounds, cells were incubated for 6 hours at 37° C. 5% CO2. To harvest, the cells were washed 1× with cold PBS, then collected by centrifugation. Cell pellets were lysed in RIPA buffer with protease and phosphatase inhibitors (Roche). Lysates were clarified by centrifugation, and protein concentrations were normalized using a BCA assay (Thermo ScientificTM). The samples were diluted with 4×LDS+10% β-mercaptoethanol, and were boiled at 95° C. for 5 minutes. Proteins of interest were then assessed by western blotting. […] The experimental protocol was the same as in Example 28.

Sequence of Wee1 (P30291 whole entry): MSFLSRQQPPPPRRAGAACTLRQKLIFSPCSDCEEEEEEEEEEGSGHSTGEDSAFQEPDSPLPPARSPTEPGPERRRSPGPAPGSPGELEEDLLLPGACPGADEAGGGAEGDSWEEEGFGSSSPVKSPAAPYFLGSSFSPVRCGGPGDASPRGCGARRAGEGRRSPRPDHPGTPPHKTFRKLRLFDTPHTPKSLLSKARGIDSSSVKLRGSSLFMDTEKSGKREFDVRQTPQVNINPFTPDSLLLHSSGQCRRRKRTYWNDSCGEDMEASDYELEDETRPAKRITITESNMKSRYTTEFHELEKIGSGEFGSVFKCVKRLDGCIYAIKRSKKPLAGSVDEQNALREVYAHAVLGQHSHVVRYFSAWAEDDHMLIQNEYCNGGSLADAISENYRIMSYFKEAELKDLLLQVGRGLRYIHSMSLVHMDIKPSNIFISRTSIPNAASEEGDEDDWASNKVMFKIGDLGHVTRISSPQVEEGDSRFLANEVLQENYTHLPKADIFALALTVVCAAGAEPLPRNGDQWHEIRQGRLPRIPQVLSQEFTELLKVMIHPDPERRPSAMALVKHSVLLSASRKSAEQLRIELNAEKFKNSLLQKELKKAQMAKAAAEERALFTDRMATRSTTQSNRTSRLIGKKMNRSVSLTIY

SMILES | Wee1 degradation
C=CCn1c(=O)c2cnc(Nc3ccc(N4CCN(CCCCCC(=O)N[C@H](C(=O)N5C[C@H](O)C[C@H]5C(=O)N[C@@H](C)c5ccc(-c6scnc6C)cc5)C(C)(C)C)CC4)cc3)nc2n1-c1cccc(C(C)(C)O)n1 [Compound 21, tert-butyl (2S,4R)-1-((S)-2-(6-(4-(4-((2-allyl-1-(6-(2-hydroxypropan-2-yl)pyridin-2-yl)-3-oxo-2,3-dihydro-1H-pyrazolo[3,4-d]pyrimidin-6-yl)amino)phenyl)piperazin-1-yl)hexanamido)-3,3-dimethylbutanoyl)-4-hydroxy-N—((S)-1-(4-(4-methylthiazol-5-yl)phenyl)ethyl)pyrrolidine-2-carboxamide] | Degradation of Wee1 was also observed

same assay, conditions: MOLT-4, 1 μM, MOLT4 cells, approximated by immunoblot, read-out: Extent of Degradation of Wee1

SMILES | percent Wee1 degradation at 1 µM
C=CCn1c(=O)c2cnc(Nc3ccc(N4CCN(C(=O)CCCCCCCCOc5cccc6c5C(=O)N(C5CCC(=O)NC5=O)C6=O)CC4)cc3)nc2n1-c1cccc(C(C)(C)O)n1 (centres unmarked) [Compound 6, 4-((9-(4-(4-((2-allyl-1-(6-(2-hydroxypropan-2-yl)pyridin-2-yl)-3-oxo-2,3-dihydro-1H-pyrazolo[3,4-d]pyrimidin-6-yl)amino)phenyl)piperazin-1-yl)-9-oxononyl)oxy)-2-(2,6-dioxopiperidin-3-yl)isoindoline-1,3-dione] | 25 to 50%
C=CCn1c(=O)c2cnc(Nc3ccc(N4CCN(CCCNc5cccc6c5C(=O)N(C5CCC(=O)NC5=O)C6=O)CC4)cc3)nc2n1-c1cccc(C(F)(F)F)n1 (centres unmarked) [Compound 18, 4-((3-(4-(4-((2-Allyl-3-oxo-1-(6-(trifluoromethyl)pyridin-2-yl)-2,3-dihydro-1H-pyrazolo[3,4-d]pyrimidin-6-yl)amino)phenyl)piperazin-1-yl)propyl)amino)-2-(2,6-dioxopiperidin-3-yl)isoindoline-1,3-dione] | > 50%
C=CCn1c(=O)c2cnc(Nc3ccc(N4CCN(C(=O)CCOCCOCCOCCN5CCN(Cc6ccc(COc7cccc8c7CN([C@H]7CCC(=O)NC7=O)C8=O)cc6)CC5)CC4)cc3)nc2n1-c1cccc(C(C)(C)O)n1 [Compound 9, (S)-3-(4-((4-((4-(2-(2-(2-(3-(4-(4-((2-allyl-1-(6-(2-hydroxypropan-2-yl)pyridin-2-yl)-3-oxo-2,3-dihydro-1H-pyrazolo[3,4-d]pyrimidin-6-yl)amino)phenyl)piperazin-1-yl)-3-oxopropoxy)ethoxy)ethoxy)ethyl)piperazin-1-yl)methyl)benzyl)oxy)-1-oxoisoindolin-2-yl)piperidine-2,6-dione] | > 50%
C=CCn1c(=O)c2cnc(Nc3ccc(N4CCN(CCCCCC(=O)N[C@H](C(=O)N5C[C@H](O)C[C@H]5C(=O)N[C@@H](C)c5ccc(-c6scnc6C)cc5)C(C)(C)C)CC4)cc3)nc2n1-c1cccc(C(C)(C)O)n1 [Compound 21, tert-butyl (2S,4R)-1-((S)-2-(6-(4-(4-((2-allyl-1-(6-(2-hydroxypropan-2-yl)pyridin-2-yl)-3-oxo-2,3-dihydro-1H-pyrazolo[3,4-d]pyrimidin-6-yl)amino)phenyl)piperazin-1-yl)hexanamido)-3,3-dimethylbutanoyl)-4-hydroxy-N—((S)-1-(4-(4-methylthiazol-5-yl)phenyl)ethyl)pyrrolidine-2-carboxamide] | < 25%
C=CCn1c(=O)c2cnc(Nc3ccc(N4CCN(C(=O)CCOCCOCCOCCOCCNc5cccc6c5C(=O)N(C5CCC(=O)NC5=O)C6=O)CC4)cc3)nc2n1-c1cccc(C(C)(C)O)n1 (centres unmarked) [Compound 1, 4-((15-(4-(4-((2-allyl-1-(6-(2-hydroxypropan-2-yl)pyridin-2-yl)-3-oxo-2,3-dihydro-1H-pyrazolo[3,4-d]pyrimidin-6-yl)amino)phenyl)piperazin-1-yl)-15-oxo-3,6,9,12-tetraoxapentadecyl)amino)-2-(2,6-dioxopiperidin-3-yl)isoindoline-1,3-dione] | < 25%
C=CCn1c(=O)c2cnc(Nc3ccc(N4CCN(CCCNC(=O)CCOCCOCCOCCOCCNc5cccc6c5C(=O)N(C5CCC(=O)NC5=O)C6=O)CC4)cc3)nc2n1-c1cccc(C(C)(C)O)n1 (centres unmarked) [Compound 8, N-(3-(4-(4-((2-allyl-1-(6-(2-hydroxypropan-2-yl)pyridin-2-yl)-3-oxo-2,3-dihydro-1H-pyrazolo[3,4-d]pyrimidin-6-yl)amino)phenyl)piperazin-1-yl)propyl)-1-((2-(2,6-dioxopiperidin-3-yl)-1,3-dioxoisoindolin-4-yl)amino)-3,6,9,12-tetraoxapentadecan-15-amide] | > 50%
C=CCn1c(=O)c2cnc(Nc3ccc(N(C)CCCCNc4cccc5c4C(=O)N(C4CCC(=O)NC4=O)C5=O)cc3)nc2n1-c1cccc(C(C)(C)O)n1 (centres unmarked) [Compound 15, 4-((4-((4-((2-Allyl-1-(6-(2-hydroxypropan-2-yl)pyridin-2-yl)-3-oxo-2,3-dihydro-1H-pyrazolo[3,4-d]pyrimidin-6-yl)amino)phenyl)(methyl)amino)butyl)amino)-2-(2,6-dioxopiperidin-3-yl)isoindoline-1,3-dione] | 25 to 50%
C=CCn1c(=O)c2cnc(Nc3ccc(N4CCN(C(=O)CCOCCNc5cccc6c5C(=O)N(C5CCC(=O)NC5=O)C6=O)CC4)cc3)nc2n1-c1cccc(C(C)(C)O)n1 (centres unmarked) [Compound 5, 4-((2-(3-(4-(4-((2-allyl-1-(6-(2-hydroxypropan-2-yl)pyridin-2-yl)-3-oxo-2,3-dihydro-1H-pyrazolo[3,4-d]pyrimidin-6-yl)amino)phenyl)piperazin-1-yl)-3-oxopropoxy)ethyl)amino)-2-(2,6-dioxopiperidin-3-yl)isoindoline-1,3-dione] | > 50%
C=CCn1c(=O)c2cnc(Nc3ccc(N4CCN(C(=O)CCOCCOCCNc5cccc6c5C(=O)N(C5CCC(=O)NC5=O)C6=O)CC4)cc3)nc2n1-c1cccc(C(C)(C)O)n1 (centres unmarked) [Compound 3, 4-((2-(2-(3-(4-(4-((2-allyl-1-(6-(2-hydroxypropan-2-yl)pyridin-2-yl)-3-oxo-2,3-dihydro-1H-pyrazolo[3,4-d]pyrimidin-6-yl)amino)phenyl)piperazin-1-yl)-3-oxopropoxy)ethoxy)ethyl)amino)-2-(2,6-dioxopiperidin-3-yl)isoindoline-1,3-dione] | > 50%
C=CCn1c(=O)c2cnc(Nc3ccc(N4CCN(CCCNc5cccc6c5C(=O)N(C5CCC(=O)NC5=O)C6=O)CC4)cc3)nc2n1-c1cccc(OC)n1 (centres unmarked) [Compound 17, 4-((3-(4-(4-((2-Allyl-1-(6-methoxypyridin-2-yl)-3-oxo-2,3-dihydro-1H-pyrazolo[3,4-d]pyrimidin-6-yl)amino)phenyl)piperazin-1-yl)propyl)amino)-2-(2,6-dioxopiperidin-3-yl)isoindoline-1,3-dione] | > 50%
C=CCn1c(=O)c2cnc(Nc3ccc(N4CCN(C(=O)CCOCCOCCNc5cccc6c5CN(C5CCC(=O)NC5=O)C6=O)CC4)cc3)nc2n1-c1cccc(C(C)(C)O)n1 (centres unmarked) [Compound 4, 3-(4-((2-(2-(3-(4-(4-((2-allyl-1-(6-(2-hydroxypropan-2-yl)pyridin-2-yl)-3-oxo-2,3-dihydro-1H-pyrazolo[3,4-d]pyrimidin-6-yl)amino)phenyl)piperazin-1-yl)-3-oxopropoxy)ethoxy)ethyl)amino)-1-oxoisoindolin-2-yl)piperidine-2,6-dione] | 25 to 50%
C=CCn1c(=O)c2cnc(Nc3ccc(N4CCN(CCCNC(=O)CCOCCOCCOCCN5CCN(Cc6ccc(COc7cccc8c7CN([C@H]7CCC(=O)NC7=O)C8=O)cc6)CC5)CC4)cc3)nc2n1-c1cccc(C(C)(C)O)n1 [Compound 10, (S)—N-(3-(4-(4-((2-Allyl-1-(6-(2-hydroxypropan-2-yl)pyridin-2-yl)-3-oxo-2,3-dihydro-1H-pyrazolo[3,4-d]pyrimidin-6-yl)amino)phenyl)piperazin-1-yl)propyl)-3-(2-(2-(2-(4-(4-(((2-(2,6-dioxopiperidin-3-yl)-1-oxoisoindolin-4-yl)oxy)methyl)benzyl)piperazin-1-yl)ethoxy)ethoxy)ethoxy)propanamide] | 25 to 50%
C=CCn1c(=O)c2cnc(Nc3ccc(N(C)CCCCNc4ccc5c(c4)C(=O)N(C4CCC(=O)NC4=O)C5=O)cc3)nc2n1-c1cccc(C(C)(C)O)n1 (centres unmarked) [Compound 16, 5-((4-((4-((2-Allyl-1-(6-(2-hydroxypropan-2-yl)pyridin-2-yl)-3-oxo-2,3-dihydro-1H-pyrazolo[3,4-d]pyrimidin-6-yl)amino)phenyl)(methyl)amino)butyl)amino)-2-(2,6-dioxopiperidin-3-yl)isoindoline-1,3-dione] | > 50%
